Data from patent publication US7323597B2, “Method for the production of diaminoxylene by continuous hydrogenation of liquid phthalonitrile” (BASF Aktiengesellschaft, priority 2003, dated 2008).

Test: Solubility of IPN in MXDA
Format: physicochemical
Details: in MXDA (meta-xylylenediamine) as solvent, at 70° C.

## N#Cc1cccc(C#N)c1 [IPN, 1,3-dicyanobenzene]
  solubility of IPN in MXDA: approx. 20 % by weight
